Results from US12269831B2, “Modulators of cystic fibrosis transmembrane conductance regulator” (Vertex Pharmaceuticals Incorporated, priority 2020, dated 2025).

molecular target: T1, CFTR (F508del/MF-HBE cells) (Homo sapiens, UniProt P13569, DEL508-508); experiment: Ussing chamber assay of CFTR-mediated short-circuit currents (potentiator identification); type: cell-based; settings: CFTR-mediated Isc, 18-24 h incubation at 37° C. with 10 μM (14S)-8-[3-(2-{dispiro[2.0.2.1]heptan-7-yl}ethoxy)-1H-pyrazol-1-yl]-... corrector, 20% human serum
T1 construct: human bronchial epithelial (HBE) cells derived from CF subjects heterozygous for F508del and a minimal function CFTR mutation (F508del/MF-HBE); endogenous in cells; host or cells: primary human bronchial epithelial (HBE) cells from CF subjects, genotype F508del/minimal function
Protocol: Ussing Chamber Assay of CFTR-Mediated Short-Circuit Currents
Ussing chamber experiments were performed using human bronchial epithelial (HBE) cells derived from CF subjects heterozygous for F508del and a minimal function CFTR mutation (F508del/MF-HBE) and cultured as previously described (Neuberger T, Burton B, Clark H, Van Goor F Methods Mol Biol 2011:741:39-54). After four days the apical media was removed, and the cells were grown at an air liquid interface for >14 days prior to use.
To isolate the CFTR-mediated short-circuit (Isc) current, F508del/MF-HBE grown on Costar® Snapwell™ cell culture inserts were mounted in an Ussing chamber and the transepithelial ISC was measured under voltage-clamp recording conditions (Vhold=0 mV) at 37° C. The basolateral solution contained (in mM) 145 NaCl, 0.83 K2HPO4, 3.3 KH2PO4, 1.2 MgCl2, 1.2 CaCl2, 10 Glucose, 10 HEPES (pH adjusted to 7.4 with NaOH) and the apical solution contained (in mM) 145 NaGluconate, 1.2 MgCl2, 1.2 CaCl2, 10 glucose, 10 HEPES (pH adjusted to 7.4 with NaOH) and 30 μM amiloride to block the epithelial sodium channel. Forskolin (20 μM) was added to the apical surface to activate CFTR, followed by apical addition of a CFTR inhibitor cocktail consisting of BPO, GlyH-101 and CFTR inhibitor 172 (each at 20 μM final assay concentration) to specifically isolate CFTR currents. The CFTR-mediated Isc (μA/cm^2) for each condition was determined from the peak forskolin response to the steady-state current following inhibition.
Identification of Potentiator Compounds
The activity of the CFTR potentiator compounds on the CFTR-mediated Isc was determined in Ussing chamber studies as described above. The F508del/MF-HBE cell cultures were incubated with the potentiator compounds at a range of concentrations in combination with 10 μM (14S)-8-[3-(2-{dispiro[2.0.2.1]heptan-7-yl}ethoxy)-1H-pyrazol-1-yl]-12,12-dimethyl-2λ^6-thia-3,9,11,18,23-pentaazatetracyclo[17.3.1.111,14.05,10]tetracosa-1(22),5,7,9,19(23),20-hexaene-2,2,4-trione for 18-24 hours at 37° C. and in the presence of 20% human serum. The concentration of potentiator compounds and (14S)-8-[3-(2-{dispiro[2.0.2.1]heptan-7-yl}ethoxy)-1H-pyrazol-1-yl]-12,12-dimethyl-2λ^6-thia-3,9,11,18,23-pentaazatetracyclo[17.3.1.111,14.05,10]tetracosa-1(22),5,7,9,19(23),20-hexaene-2,2,4-trione used during the 18-24 hours incubations was kept constant throughout the Ussing chamber measurement of the CFTR-mediated Isc to ensure compounds were present throughout the entire experiment. The efficacy and potency of the putative F508del potentiators was compared to that of the known Vertex potentiator, ivacaftor (N-[2,4-bis(1,1-dimethylethyl)-5-hydroxyphenyl]-1,4-dihydro-4-oxoquinoline-3-carboxamide).

T1 sequence (P13569 with tags, fused parts or gaps DEL508-508): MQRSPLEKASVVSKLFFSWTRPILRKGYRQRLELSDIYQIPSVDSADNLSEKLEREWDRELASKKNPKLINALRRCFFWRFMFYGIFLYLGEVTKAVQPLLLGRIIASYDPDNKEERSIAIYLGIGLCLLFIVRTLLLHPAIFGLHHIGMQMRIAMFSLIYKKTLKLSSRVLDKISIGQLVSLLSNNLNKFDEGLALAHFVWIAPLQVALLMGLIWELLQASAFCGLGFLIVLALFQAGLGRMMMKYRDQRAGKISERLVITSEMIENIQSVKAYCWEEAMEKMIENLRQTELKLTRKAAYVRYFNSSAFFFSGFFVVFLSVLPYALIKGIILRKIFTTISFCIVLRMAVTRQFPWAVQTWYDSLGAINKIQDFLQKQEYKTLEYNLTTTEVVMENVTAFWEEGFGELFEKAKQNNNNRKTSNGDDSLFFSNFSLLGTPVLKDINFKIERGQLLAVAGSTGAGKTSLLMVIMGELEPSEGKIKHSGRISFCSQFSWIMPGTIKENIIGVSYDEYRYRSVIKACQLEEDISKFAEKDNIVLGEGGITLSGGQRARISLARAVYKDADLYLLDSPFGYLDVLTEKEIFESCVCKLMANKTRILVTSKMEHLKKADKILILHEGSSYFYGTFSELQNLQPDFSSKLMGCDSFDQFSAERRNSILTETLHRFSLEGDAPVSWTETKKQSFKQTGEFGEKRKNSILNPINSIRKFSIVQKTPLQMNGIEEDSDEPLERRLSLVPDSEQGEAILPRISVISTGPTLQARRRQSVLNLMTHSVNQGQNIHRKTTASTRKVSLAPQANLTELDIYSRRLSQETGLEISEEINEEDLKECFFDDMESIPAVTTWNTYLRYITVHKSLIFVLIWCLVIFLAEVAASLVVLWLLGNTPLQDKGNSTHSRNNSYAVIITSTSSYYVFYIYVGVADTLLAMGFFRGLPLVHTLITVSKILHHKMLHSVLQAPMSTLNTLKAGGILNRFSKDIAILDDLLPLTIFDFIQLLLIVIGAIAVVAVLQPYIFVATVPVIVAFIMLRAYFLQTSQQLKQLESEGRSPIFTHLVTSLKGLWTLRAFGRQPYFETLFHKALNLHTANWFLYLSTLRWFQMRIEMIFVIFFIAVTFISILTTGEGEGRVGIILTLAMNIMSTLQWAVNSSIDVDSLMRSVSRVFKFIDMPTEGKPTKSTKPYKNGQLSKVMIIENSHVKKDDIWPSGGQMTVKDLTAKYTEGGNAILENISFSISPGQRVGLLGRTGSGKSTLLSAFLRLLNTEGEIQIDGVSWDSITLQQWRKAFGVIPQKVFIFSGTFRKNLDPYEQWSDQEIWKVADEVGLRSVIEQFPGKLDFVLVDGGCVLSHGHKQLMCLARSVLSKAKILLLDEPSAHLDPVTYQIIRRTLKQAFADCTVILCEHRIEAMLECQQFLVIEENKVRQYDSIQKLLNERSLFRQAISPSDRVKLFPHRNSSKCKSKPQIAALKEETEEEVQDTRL

`Nc1cc(C(F)(F)F)c2nc1-c1nnc(o1)[C@@](O)(C(F)(F)F)CCCCCS2` [Compound 22, (6R)-16-amino-6,14-bis(trifluoromethyl)-18-oxa-12-thia-3,4,17-triazatricyclo[11.3.1.12,5]octadeca-1(17),2,4,13,15-pentaen-6-ol] and `Nc1cc(C(F)(F)F)c2nc1-c1nnc(o1)[C@@](O)(C(F)(F)F)CCCCCCS2` [Compound 21, (6R)-17-Amino-6,15-bis(trifluoromethyl)-19-oxa-13-thia-3,4,18-triazatricyclo[12.3.1.12,5]nonadeca-1(18),2,4,14,16-pentaen-6-ol] cannot be ordered by EC50: under 500 nM for the first, under 500 nM for the second.

`C[C@@H]1CCCc2ccc(F)c(c2)C(O)(C(F)(F)F)C2=NN=C(O2)c2nc(c(C(F)(F)F)cc2N)O1` (stereo partly drawn) [Compound 18, (15R)-20-amino-8-fluoro-15-methyl-6,18-bis(trifluoromethyl)-16,23-dioxa-3,4,21-triazatetracyclo[15.3.1.12,5.17,11]tricosa-1(21),2,4,7(22),8,10,17,19-octaen-6-ol] and `C[C@@H]1CCCCC[C@](O)(C(F)(F)F)C2=NN=C(O2)c2nc(c(C(F)(F)F)cc2N)O1` [Compound 11, (6R,12R)-17-amino-12-methyl-6,15-bis(trifluoromethyl)-13,19-dioxa-3,4,18-triazatricyclo[12.3.1.12,5]nonadeca-1(18),2,4,14,16-pentaen-6-ol] cannot be ordered by EC50: under 500 nM for the first, under 500 nM for the second.

`CC(C)(C)c1cccc(CC2CCCCC[C@](O)(C(F)(F)F)C3=NN=C(O3)c3nc(c(C(F)(F)F)cc3N)O2)c1` (single isomer, unassigned) [Compound 51] and `C[C@@H]1CCCCC[C@@](O)(C(F)(F)F)C2=NN=C(O2)c2nc(c(C(F)(F)F)cc2N)O1` [Compound 12, (6S,12R)-17-Amino-12-methyl-6,15-bis(trifluoromethyl)-13,19-dioxa-3,4,18-triazatricyclo[12.3.1.12,5]nonadeca-1(18),2,4,14,16-pentaen-6-ol] cannot be ordered by EC50: under 500 nM for the first, under 500 nM for the second.

`CC1CCC(O)(C(F)(F)F)C2=NN=C(O2)c2nc(c(C(F)(F)F)cc2N)Oc2cccc1c2` (centres unmarked) [Compound 29, 19-amino-9-methyl-6,17-bis(trifluoromethyl)-15,22-dioxa-3,4,20-triazatetracyclo[14.3.1.12,5.110,14]docosa-1(20),2,4,10(21),11,13,16,18-octaen-6-ol] and `C[C@@H]1CCC(O)CC[C@](O)(C(F)(F)F)C2=NN=C(O2)c2nc(c(C(F)(F)F)cc2N)O1` (single isomer, unassigned) [Compound 42] cannot be ordered by EC50: under 500 nM for the first, under 500 nM for the second.

First: C[C@@H]1CC(=O)CCC[C@](O)(C(F)(F)F)C2=NN=C(O2)c2nc(c(C(F)(F)F)cc2N)O1 [Compound 25, (6R,12R)-17-amino-6-hydroxy-12-methyl-6,15-bis(trifluoromethyl)-13,19-dioxa-3,4,18-triazatricyclo[12.3.1.12,5]nonadeca-1(18),2,4,14,16-pentaen-10-one]
Second: C[C@@H]1CC(O)CCC[C@](O)(C(F)(F)F)C2=NN=C(O2)c2nc(c(C(F)(F)F)cc2N)O1 (single isomer, unassigned) [Compound 46]
The EC50 of the first is higher: over 1000 nM for the first, under 500 nM for the second.

`Nc1cc(C(F)(F)F)c2nc1-c1nnc(o1)[C@@](O)(C(F)(F)F)CCCCCC(Cc1ccc(F)cc1)O2` (single isomer, unassigned) [Compound 49] and `Nc1cc(C(F)(F)F)c2nc1-c1nnc(o1)[C@@](O)(C(F)(F)F)CCCCC[C@@H](CO)O2` [Compound 37, (6R,12S)-17-amino-12-(hydroxymethyl)-6,15-bis(trifluoromethyl)-13,19-dioxa-3,4,18-triazatricyclo[12.3.1.12,5]nonadeca-1(18),2,4,14,16-pentaen-6-ol] cannot be ordered by EC50: under 500 nM for the first, under 500 nM for the second.

First: Nc1cc(C(F)(F)F)c2nc1-c1nnc(o1)[C@@](O)(C(F)(F)F)CCCCCC[S@+]2[O-] [Compound 19, (6R,13S)-17-Amino-13-oxido-6,15-bis(trifluoromethyl)-19-oxa-13-thionia-3,4,18-triazatricyclo[12.3.1.12,5]nonadeca-1(18),2,4,14,16-pentaen-6-ol]
Second: Nc1cc(C(F)(F)F)c2nc1-c1nnc(o1)[C@@](O)(C(F)(F)F)CCCCCC[S@@+]2[O-] [Compound 20, (6R,13R)-17-amino-13-oxido-6,15-bis(trifluoromethyl)-19-oxa-13-thionia-3,4,18-triazatricyclo[12.3.1.12,5]nonadeca-1(18),2,4,14,16-pentaen-6-ol]
The EC50 of the first is lower: under 500 nM for the first, 500 to 1000 nM for the second.

`[2H]C([2H])([2H])[C@@]1([2H])Oc2nc(c(N)cc2C(F)(F)F)C2=NN=C(O2)[C@@](O)(C(F)(F)F)CCCCC1([2H])[2H]` [Compound 39, (6R,12R)-17-amino-11,11,12-trideuterio-12-(trideuteriomethyl)-6,15-bis(trifluoromethyl)-13,19-dioxa-3,4,18-triazatricyclo[12.3.1.12,5]nonadeca-1(18),2,4,14,16-pentaen-6-ol] and `[2H]C1CC[C@](O)(C(F)(F)F)C2=NN=C(O2)c2nc(c(C(F)(F)F)cc2N)O[C@H](C)CC1[2H]` (stereo partly drawn) [Compound 38, (6R,12R)-17-amino-9,10-dideuterio-12-methyl-6,15-bis(trifluoromethyl)-13,19-dioxa-3,4,18-triazatricyclo[12.3.1.12,5]nonadeca-1(18),2,4,14,16-pentaen-6-ol] cannot be ordered by EC50: under 500 nM for the first, under 500 nM for the second.

First: Nc1cc(C(F)(F)F)c2nc1-c1nnc(o1)C(O)(C(F)(F)F)CCCCc1ccccc1O2 (centres unmarked) [Compound 17, 21-amino-6,19-bis(trifluoromethyl)-17,23-dioxa-3,4,22-triazatetracyclo[16.3.1.12,5.011,16]tricosa-1(22),2,4,11(16),12,14,18,20-octaen-6-ol]
Second: Nc1cc(C(F)(F)F)c2nc1-c1nnc(o1)C(O)(C(F)(F)F)CCCCc1cccc(c1)O2 (single isomer, unassigned) [Compound 28, 20-amino-6,18-bis(trifluoromethyl)-16,23-dioxa-3,4,21-triazatetracyclo[15.3.1.12,5.111,15]tricosa-1(21),2,4,11(22),12,14,17,19-octaen-6-ol]
The EC50 of the first is lower: under 500 nM for the first, over 1000 nM for the second.

First: Nc1cc(C(F)(F)F)c2nc1-c1nnc(o1)[C@@](O)(C(F)(F)F)CCCCC[S+]2[O-] (single isomer, unassigned) [Compound 23]
Second: Nc1cc(C(F)(F)F)c2nc1-c1nnc(o1)[C@@](O)(C(F)(F)F)CCCCCCO2 [Compound 5, (6R)-17-amino-6,15-bis(trifluoromethyl)-13,19-dioxa-3,4,18-triazatricyclo[12.3.1.12,5]nonadeca-1(18),2,4,14,16-pentaen-6-ol]
The EC50 of the first is higher: over 1000 nM for the first, under 500 nM for the second.

First: C[C@@H]1CCCCC(O)C(O)(C(F)(F)F)C2=NN=C(O2)c2nc(c(C(F)(F)F)cc2N)O1 (single isomer, unassigned) [Compound 56]
Second: C[C@@H]1CC(O)CCC[C@](O)(C(F)(F)F)C2=NN=C(O2)c2nc(c(C(F)(F)F)cc2N)O1 (single isomer, unassigned) [Compound 43]
The EC50 of the first is higher: over 1000 nM for the first, under 500 nM for the second. The second is the more potent here.

Going from `Nc1cc(C(F)(F)F)c2nc1-c1nnc(o1)C(O)(C(F)(F)F)CCCCc1cccc(c1)O2` (single isomer, unassigned) [Compound 27, 20-amino-6,18-bis(trifluoromethyl)-16,23-dioxa-3,4,21-triazatetracyclo[15.3.1.12,5.111,15]tricosa-1(21),2,4,11(22),12,14,17,19-octaen-6-ol] to `Nc1cc(C(F)(F)F)c2nc1-c1nnc(o1)[C@@](O)(C(F)(F)F)CCCCC[S+]2[O-]` (single isomer, unassigned) [Compound 24], the EC50 rises from under 500 nM to over 1000 nM. The first is the more potent here.

`CC(C)(C)c1cccc(CC2CCCCC[C@](O)(C(F)(F)F)C3=NN=C(O3)c3nc(c(C(F)(F)F)cc3N)O2)c1` (single isomer, unassigned) [Compound 52] and `Nc1cc(C(F)(F)F)c2nc1-c1nnc(o1)C(O)(C(F)(F)F)CCCCCS2(=O)=O` (single isomer, unassigned) [Compound 15, 16-amino-12,12-dioxo-6,14-bis(trifluoromethyl)-18-oxa-12λ^6-thia-3,4,17-triazatricyclo[11.3.1.12,5]octadeca-1(17),2,4,13,15-pentaen-6-ol] cannot be ordered by EC50: under 500 nM for the first, under 500 nM for the second.
